This experiment relates to skin. The following applies: for Rating: 5% sample applied to skin, scale of 1 to 5, 1 being poor and 5 being best. The text has this: The effect of moisturization can be measured by the appearance of the skin when treated. Untreated skin that is in need of moisturization is rough, scaly and dry looking under the dissection microscope. The application of the moisturization solution to the skin and its effect upon minimizing roughness, scaling and dry appearance is a good measure of moisturization. We performed such an evaluation and rated the performance of a scale of 1 to 5.1 being poor and 5 being best.

As for `C[N+](C)(C)CCO` [Choline], the Rating turned out to be 4.

As to `C[N+](C)(CCO)CC(O)CO.[Cl-]` (stereo not shown) [Example 3], the Rating worked out at 5. Moreover, the “moisturization effect in words” value (applied to rough dry skin) is “very effective moisturization agent”.

For the compound `OCC(O)CO` [Glycerin], the Rating turned out to be 2.

The values above are taken from patent publication US6869977B1, “Skin moisturization compound” (Colonial Chemical Inc., priority 2004, dated 2005).
